Patent US9277697B2, “Compositions and methods for anti-transpiration in plants” (Innovation Hammer, LLC, priority 2004, dated 2016)

What was measured:
pectic cell = assay: Penetration and integration of saccharides
Cabbage = assay: Growth promotion with iron-Mac formulations versus component controls; type: in vivo; settings: 12 ppm iron-Mac, 12 ppm Fe—Na2EDTA, 50 mM (NH4)2SO4
Description: (§1) Dilute the mixture in an appropriate volume of water. Mix until the compounds are dissolved. Spray the resulting formulation on the plant foliage (e.g. New Guinea Impatiens) so that the foliage glistens. Allow a day for leaf uptake. The following results are of growth promotion using iron-Mac formulations of the invention versus conventionally cultured controls and with identical quantities of each of the components as separate controls.

Lantana = assay: as above; type: in vivo; settings: 12 ppm iron-Mac, 12 ppm Fe—Na2EDTA, 50 mM (NH4)2SO4
Description: as §1

Rice = assay: as above; type: in vivo; settings: 12 ppm iron-Mac, 12 ppm Fe—Na2EDTA, 50 mM (NH4)2SO4
Description: as §1

Rice, Lantana, Cabbage = assay: Yield with iron-Mac formulations versus component controls, all plant types; type: in vivo; settings: for all plant types; 12 ppm Fe—Na2EDTA, 50 mM (NH4)2SO4
Description: as §1

weeds = assay: Weed kill by tank-mixes of saccharides, herbicide and ammonium sulfate; type: in vivo; settings: 1 lb/acre glyphosate; additive 1:1 methyl glucosides to organic ammonium sulfates
From the text: The inherent benefit of the reduction of productivity observed by surface coatings was exploited by utilizing their weakening effects as additives to enhance weed kill of pesticides. In sets of replicated trials, weeds were given tank-mixes with saccharides, herbicides, and ammonium sulfate fertilizer. Perhaps the most widely used herbicide, N-phosphonomethylglycine (PO(OH)2CH2.2NHCH2COOH), is commonly referred to as glyphosate, and is most abundantly found formulated as a water-soluble mono-isopropylamine (IPA) salt or sodium salt, hereinafter referred to as glyphosate, meant to include salts, thereof. The preferred formulation of the present invention is a blend of 4 lbs./acre to 5 lbs./acre glyphosate; 10 lbs./acre to 100 lbs./acre of 60% to 100% methyl glucosides in a 1:1 to 3:1 blend with ammonium sulfate; and with optional surfactant. After foliar application, inhibitory methods yielded approximately 50% to 85% improved response of weeds to herbicide and additives over positive controls. […] An additional benefit is the reversal of the weakening effect of treatments to plants that have been genetically engineered for herbicide resistance. After treatment with a tank mix of herbicide and Series 1 components, a Series 2 formulation of Ca^2+-chelators may be sprayed over a Series 1 treatment once the herbicide has killed its targeted weeds. […]

## CCCCCCCCCCCCCCO[C@@H]1O[C@H](CO)[C@@H](O[C@@H]2O[C@@H](CO)[C@H](O)[C@@H](O)[C@@H]2O)[C@H](O)[C@H]1O (stereo in doubt) [tetradecylmaltoside]
Pectic cell
  penetration and integration: neither penetrate nor integrate

## N.N.O=S(=O)(O)O [(NH4)2SO4]
Cabbage
  Result (growth promotion): retarded
Lantana
  Result (growth promotion): retarded
Rice
  Result (growth promotion): retarded
Rice, Lantana, Cabbage
  yield reduction: 5% reduction

## O=C(O)CNCP(=O)(O)O [glyphosate, N-phosphonomethylglycine]
weeds
  lethal dose response: 100%

## CC(=O)OC[C@H]1OC(OC(C)=O)[C@H](OC(C)=O)[C@@H](OC(C)=O)[C@H]1OC(C)=O (some centres unmarked) [pentaace tylgalactopyranose]
Pectic cell
  penetration and integration: neither penetrate nor integrate

## CC(=O)OC[C@H]1OC(OC(C)=O)[C@H](OC(C)=O)[C@@H](OC(C)=O)[C@@H]1OC(C)=O (some centres unmarked) [pentaace tylglucopyranose]
Pectic cell
  penetration and integration: neither penetrate nor integrate

## CC(=O)OC[C@H]1OC(OC(C)=O)[C@@H](OC(C)=O)[C@@H](OC(C)=O)[C@@H]1OC(C)=O (some centres unmarked) [pentaacetylmanno-pyranose]
Pectic cell
  penetration and integration: neither penetrate nor integrate

## CC(=O)OC[C@H]1OC(Oc2ccccc2)[C@H](OC(C)=O)[C@@H](OC(C)=O)[C@@H]1OC(C)=O (some centres unmarked) [phenyltetraacetylglucoside]
Pectic cell
  penetration and integration: neither penetrate nor integrate

## Fe—Na2EDTA
Cabbage
  Result (growth promotion): phytotoxic
Lantana
  Result (growth promotion): phytotoxic
Rice
  Result (growth promotion): phytotoxic
Rice, Lantana, Cabbage
  yield reduction: 5% reduction
